Laboratory results from ChEMBL document CHEMBL4308841, “Synthesis, in vitro antiproliferative activity, and kinase inhibitory effects of pyrazole-containing diarylureas and diarylamides” (Eur J Med Chem, 2018).

Experiments:
[1] = system: SR; test: Growth inhibition of human SR cells assessed as cell growth at 100 uM incubated for 48 hrs by sulforhodamine B assay relative to control; format: functional; settings: read-out: Activity
[2] = system: ACHN; test: Growth inhibition of human ACHN cells assessed as cell growth at 0.01 uM incubated for 48 hrs by sulforhodamine B assay relative to control; format: functional; settings: read-out: Activity
[3] = system: PC-3; test: Growth inhibition of human PC3 cells assessed as cell growth at 0.01 uM incubated for 48 hrs by sulforhodamine B assay relative to control; format: functional; settings: PC-3, 48 h, read-out: Activity
[4] = system: HT-29; test: Growth inhibition of human HT-29 cells incubated for 48 hrs by sulforhodamine B assay; format: functional, cell-based; settings: HT-29, 48 h
[5] = system: SR; test: Growth inhibition of human SR cells assessed as cell growth at 0.01 uM incubated for 48 hrs by sulforhodamine B assay relative to control; format: functional; settings: read-out: Activity
[6] = system: K562; test: Growth inhibition of human K562 cells incubated for 48 hrs by sulforhodamine B assay; format: functional, cell-based; settings: K562, 48 h
[7] = system: K562; test: Growth inhibition of human K562 cells assessed as cell growth at 1 uM incubated for 48 hrs by sulforhodamine B assay relative to control; format: functional; settings: K562, 48 h, read-out: Activity
[8] = system: A498; test: Growth inhibition of human A498 cells incubated for 48 hrs by sulforhodamine B assay; format: functional, cell-based; settings: A498, 48 h
[9] = system: OVCAR-4; test: Growth inhibition of human OVCAR4 cells assessed as cell growth at 0.1 uM incubated for 48 hrs by sulforhodamine B assay relative to control; format: functional; settings: OVCAR-4, 48 h, read-out: Activity
[10] = system: SF-268; test: Growth inhibition of human SF268 cells assessed as cell growth at 0.1 uM incubated for 48 hrs by sulforhodamine B assay relative to control; format: functional; settings: SF-268, 48 h, read-out: Activity
[11] = system: OVCAR-5; test: Growth inhibition of human OVCAR5 cells assessed as cell growth at 100 uM incubated for 48 hrs by sulforhodamine B assay relative to control; format: functional; settings: OVCAR-5, 48 h, read-out: Activity
[12] = system: SN12C; test: Growth inhibition of human SN12C cells assessed as cell growth at 0.01 uM incubated for 48 hrs by sulforhodamine B assay relative to control; format: functional; settings: read-out: Activity
[13] = system: HOP-62; test: Growth inhibition of human HOP62 cells incubated for 48 hrs by sulforhodamine B assay; format: functional, cell-based; settings: HOP-62, 48 h
[14] = system: A549; test: Growth inhibition of human A549/ATCC cells assessed as cell growth at 100 uM incubated for 48 hrs by sulforhodamine B assay relative to control; format: functional; settings: A549, 48 h, read-out: Activity
[15] = system: A498; test: Growth inhibition of human A498 cells assessed as cell growth at 1 uM incubated for 48 hrs by sulforhodamine B assay relative to control; format: functional; settings: A498, 48 h, read-out: Activity
[16] = system: SK-MEL-5; test: Growth inhibition of human SK-MEL-5 cells assessed as cell growth at 0.01 uM incubated for 48 hrs by sulforhodamine B assay relative to control; format: functional; settings: SK-MEL-5, 48 h, read-out: Activity
[17] = system: NCI-H23; test: Growth inhibition of human NCI-H23 cells assessed as cell growth at 0.01 uM incubated for 48 hrs by sulforhodamine B assay relative to control; format: functional; settings: NCI-H23, 48 h, read-out: Activity
[18] = system: MDA-MB-231; test: Growth inhibition of human MDA-MB-231 cells assessed as cell growth at 0.1 uM incubated for 48 hrs by sulforhodamine B assay relative to control; format: functional; settings: MDA-MB-231, 48 h, read-out: Activity
[19] = system: HOP-62; test: Growth inhibition of human HOP62 cells assessed as cell growth at 0.01 uM incubated for 48 hrs by sulforhodamine B assay relative to control; format: functional; settings: HOP-62, 48 h, read-out: Activity
[20] = system: HT-29; test: Growth inhibition of human HT-29 cells assessed as cell growth at 0.1 uM incubated for 48 hrs by sulforhodamine B assay relative to control; format: functional; settings: HT-29, 48 h, read-out: Activity
[21] = system: OVCAR-8; test: Growth inhibition of human OVCAR8 cells assessed as cell growth at 100 uM incubated for 48 hrs by sulforhodamine B assay relative to control; format: functional; settings: OVCAR-8, 48 h, read-out: Activity
[22] = system: NCI-H226; test: Growth inhibition of human NCI-H226 cells assessed as cell growth at 1 uM incubated for 48 hrs by sulforhodamine B assay relative to control; format: functional; settings: NCI-H226, 48 h, read-out: Activity
[23] = system: OVCAR-4; test: Growth inhibition of human OVCAR4 cells assessed as cell growth at 1 uM incubated for 48 hrs by sulforhodamine B assay relative to control; format: functional; settings: OVCAR-4, 48 h, read-out: Activity
[24] = system: Malme-3M; test: Growth inhibition of human MALME-3M cells assessed as cell growth at 100 uM incubated for 48 hrs by sulforhodamine B assay relative to control; format: functional; settings: read-out: Activity
[25] = system: A549; test: Growth inhibition of human A549/ATCC cells assessed as cell growth at 0.01 uM incubated for 48 hrs by sulforhodamine B assay relative to control; format: functional; settings: A549, 48 h, read-out: Activity
[26] = system: OVCAR-3; test: Growth inhibition of human OVCAR3 cells assessed as cell growth at 100 uM incubated for 48 hrs by sulforhodamine B assay relative to control; format: functional; settings: OVCAR-3, 48 h, read-out: Activity
[27] = system: PC-3; test: Growth inhibition of human PC3 cells incubated for 48 hrs by sulforhodamine B assay; format: functional, cell-based; settings: PC-3, 48 h
[28] = system: MDA-MB-231; test: Growth inhibition of human MDA-MB-231 cells assessed as cell growth at 1 uM incubated for 48 hrs by sulforhodamine B assay relative to control; format: functional; settings: MDA-MB-231, 48 h, read-out: Activity
[29] = system: SK-OV-3; test: Growth inhibition of human SKOV3 cells assessed as cell growth at 1 uM incubated for 48 hrs by sulforhodamine B assay relative to control; format: functional; settings: SK-OV-3, 48 h, read-out: Activity
[30] = system: KM12; test: Growth inhibition of human KM12 cells assessed as cell growth at 1 uM incubated for 48 hrs by sulforhodamine B assay relative to control; format: functional; settings: KM12, 48 h, read-out: Activity
[31] = system: LOX IMVI; test: Growth inhibition of human LOXIMVI cells assessed as cell growth at 1 uM incubated for 48 hrs by sulforhodamine B assay relative to control; format: functional; settings: read-out: Activity
[32] = read-out: LC50 (the source's name)
[33] = read-out: pLC50 (the source's name) (converted)

O=C(Nc1cccc(-n2cc(-c3ccncc3)c(-c3cc(O)cc(Cl)c3)n2)c1)c1ccc(N2CCOCC2)c(C(F)(F)F)c1
growth at 100 µM [1]: -25% | growth at 0.01 µM [2]: 100% | growth at 0.01 µM [3]: 93% | GI50 ([4]; read-out: GI50): 3.03 µM | CC50 [4, 32]: > 100 µM | TGI ([4]; read-out: TGI): 11.3 µM | GI50 ([4]; read-out: pGI50 (converted)): 3.02 µM | CC50 [4, 33]: > 100 µM | TGI ([4]; read-out: pTGI (converted)): 11.2 µM | growth at 0.01 µM [5]: 92% | GI50 ([6]; read-out: GI50): 0.554 µM | LC50 ([6]; read-out: LC50): > 100 µM | TGI ([6]; read-out: TGI): 40.8 µM | GI50 ([6]; read-out: pGI50 (converted)): 0.562 µM | LC50 ([6]; read-out: pLC50 (converted)): > 100 µM | TGI ([6]; read-out: pTGI (converted)): 4.9 µM | growth at 1 µM [7]: 30% | GI50 ([8]; read-out: GI50): 1.94 µM | CC50 [8, 32]: > 100 µM | TGI ([8]; read-out: TGI): 73.2 µM | GI50 ([8]; read-out: pGI50 (converted)): 19.5 µM | CC50 [8, 33]: > 100 µM | TGI ([8]; read-out: pTGI (converted)): 72.4 µM | growth at 0.1 µM [9]: 103% | growth at 0.1 µM [10]: 101% | growth at 100 µM [11]: -47% | growth at 0.01 µM [12]: 94% | GI50 ([13]; read-out: GI50): 3.59 µM | CC50 [13, 32]: > 100 µM | TGI ([13]; read-out: TGI): 58.2 µM | GI50 ([13]; read-out: pGI50 (converted)): 3.55 µM | CC50 [13, 33]: > 100 µM | TGI ([13]; read-out: pTGI (converted)): 58.9 µM | growth at 100 µM [14]: -14% | growth at 1 µM [15]: 98% | growth at 0.01 µM [16]: 98% | growth at 0.01 µM [17]: 105% | growth at 0.1 µM [18]: 92% | growth at 0.01 µM [19]: 100% | growth at 0.1 µM [20]: 95% | growth at 100 µM [21]: 17% | growth at 1 µM [22]: 90% | growth at 1 µM [23]: 99% | growth at 100 µM [24]: -25% | growth at 0.01 µM [25]: 103% | growth at 100 µM [26]: 30% | IC50 [27]: 1.09 µM | GI50 ([27]; read-out: GI50): 1.09 µM | CC50 [27, 32]: > 100 µM | TGI ([27]; read-out: TGI): 45.6 µM | GI50 ([27]; read-out: pGI50 (converted)): 1.1 µM | CC50 [27, 33]: > 100 µM | TGI ([27]; read-out: pTGI (converted)): 45.7 µM | growth at 1 µM [28]: 11% | growth at 1 µM [29]: 95% | growth at 1 µM [30]: 54% | growth at 1 µM [31]: 51%

COc1cc(Cl)cc(-c2nn(-c3cccc(NC(=O)Nc4ccc(Cl)c(C(F)(F)F)c4)c3)cc2-c2ccncc2)c1
growth at 100 µM [1]: -30% | growth at 0.01 µM [2]: 91% | growth at 0.01 µM [3]: 94% | GI50 ([4]; read-out: GI50): 1.14 µM | CC50 [4, 32]: 3.52 µM | TGI ([4]; read-out: TGI): 43.8 µM | GI50 ([4]; read-out: pGI50 (converted)): 1.15 µM | CC50 [4, 33]: 38 µM | TGI ([4]; read-out: pTGI (converted)): 4.37 µM | growth at 0.01 µM [5]: 95% | GI50 ([6]; read-out: GI50): 0.537 µM | LC50 ([6]; read-out: LC50): 9.55 µM | TGI ([6]; read-out: TGI): 10.1 µM | GI50 ([6]; read-out: pGI50 (converted)): 5.37 µM | LC50 ([6]; read-out: pLC50 (converted)): 95.5 µM | TGI ([6]; read-out: pTGI (converted)): 10 µM | growth at 1 µM [7]: 35% | GI50 ([8]; read-out: GI50): 2.58 µM | CC50 [8, 32]: 57.6 µM | TGI ([8]; read-out: TGI): 14.4 µM | GI50 ([8]; read-out: pGI50 (converted)): 2.69 µM | CC50 [8, 33]: 57.5 µM | TGI ([8]; read-out: pTGI (converted)): 4.27 µM | growth at 0.1 µM [9]: 97% | growth at 0.1 µM [10]: 90% | growth at 100 µM [11]: -89% | growth at 0.01 µM [12]: 98% | GI50 ([13]; read-out: GI50): 2.12 µM | CC50 [13, 32]: > 100 µM | TGI ([13]; read-out: TGI): 63.2 µM | GI50 ([13]; read-out: pGI50 (converted)): 2.14 µM | CC50 [13, 33]: > 100 µM | TGI ([13]; read-out: pTGI (converted)): 6.31 µM | growth at 100 µM [14]: -76% | growth at 1 µM [15]: 78% | growth at 0.01 µM [16]: 96% | growth at 0.01 µM [17]: 90% | growth at 0.1 µM [18]: 91% | growth at 0.01 µM [19]: 100% | growth at 0.1 µM [20]: 94% | growth at 100 µM [21]: -33% | growth at 1 µM [22]: 79% | growth at 1 µM [23]: 62% | growth at 100 µM [24]: -35% | growth at 0.01 µM [25]: 97% | growth at 100 µM [26]: -56% | IC50 [27]: 0.34 µM | GI50 ([27]; read-out: GI50): 0.342 µM | CC50 [27, 32]: > 100 µM | TGI ([27]; read-out: TGI): 21.2 µM | GI50 ([27]; read-out: pGI50 (converted)): 0.339 µM | CC50 [27, 33]: > 100 µM | TGI ([27]; read-out: pTGI (converted)): 2.14 µM | growth at 1 µM [28]: 69% | growth at 1 µM [29]: 100% | growth at 1 µM [30]: 33% | growth at 1 µM [31]: 61%
